Drawing on patent publication US8735414B2 (priority 2009, dated 2014), this text covers IC50 for 29 compounds.

The test system of the experiment is bicistronic HCV replicon (replicon RNA, GenBank Accession No. AJ242654). The experiment in a line: HCV Replicon Assay. Type of experiment: cell-based. The conditions noted are these: Hepatitis C virus, 72 h, read-out: Replicon IC50.

Each structure is given as a SMILES string.

As to `CC(C)(C)N(C(F)F)S(=O)(=O)c1ccc(-c2c(C#N)c3cc(F)c(OC(F)F)cc3n2C2CCC2)nc1` [compound 721, N-tert-butyl-6-[3-cyano-1-cyclobutyl-6-(difluoromethoxy)-5-fluoro-1H-indol-2-yl]-N-(difluoromethyl)pyridine-3-sulfonamide], the half-inhibitory concentration (IC50) fell in the range of 500 to 2000 nM.

Turning to `COc1cc2c(cc1F)c(C#N)c(-c1ccc(S(=O)(=O)N[C@@H](C)C(F)(F)F)cn1)n2C1CCC1` [compound 725, 6-(3-cyano-1-cyclobutyl-5-fluoro-6-methoxy-1H-indol-2-yl)-N-[(2S)-1,1,1-trifluoropropan-2-yl]pyridine-3-sulfonamide], the concentration for half-maximal inhibition (IC50) is below 500 nM.

As to `C[C@H](NS(=O)(=O)c1ccc(-c2cc3cc(F)c(OC(F)F)cc3n2C2CCC2)nc1)C(F)(F)F` [compound 727, 6-[1-cyclobutyl-6-(difluoromethoxy)-5-fluoro-1H-indol-2-yl]-N-[(2S)-1,1,1-trifluoropropan-2-yl]pyridine-3-sulfonamide], the IC50 is below 500 nM.

Take `Cc1cc2c(cc1F)c(C#N)c(-c1ccc(S(=O)(=O)N[C@@H](C)C(F)(F)F)cn1)n2-c1ccc(F)cn1` [compound 742, 6-[3-cyano-5-fluoro-1-(5-fluoropyridin-2-yl)-6-methyl-1H-indol-2-yl]-N-[(2S)-1,1,1-trifluoropropan-2-yl]pyridine-3-sulfonamide]: the concentration for half-maximal inhibition (IC50) is below 500 nM.

On to `C[C@H](NS(=O)(=O)c1ccc(-c2c(C(N)=O)c3cc(F)ccc3n2-c2ccccn2)nc1)C(F)(F)F` [compound 748, 5-fluoro-1-(pyridin-2-yl)-2-(5-{[(2S)-1,1,1-trifluoropropan-2-yl]sulfamoyl}pyridin-2-yl)-1H-indole-3-carboxamide], for which the IC50 was below 500 nM.

Turning to `Cc1cc2c(cc1F)c(C#N)c(-c1ccc(S(=O)(=O)N[C@H](C)C(F)(F)F)cn1)n2C1CCOCC1` [compound 749, 6-[3-cyano-5-fluoro-6-methyl-1-(tetrahydro-2H-pyran-4-yl)-1H-indol-2-yl]-N-[(2R)-1,1,1-trifluoropropan-2-yl]pyridine-3-sulfonamide], the half-inhibitory concentration (IC50) was below 500 nM.

As to `Cc1cc2c(cc1F)c(C#N)c(-c1ccc(S(=O)(=O)NC(C)(C)C(F)(F)F)cn1)n2C1CCOCC1` [compound 750, 6-[3-cyano-5-fluoro-6-methyl-1-(tetrahydro-2H-pyran-4-yl)-1H-indol-2-yl]-N-(1,1,1-trifluoro-2-methylpropan-2-yl)pyridine-3-sulfonamide], the IC50 was below 500 nM.

On to `Cc1cc2c(cc1F)c(C#N)c(-c1ccc(S(=O)(=O)N[C@@H](C)C(F)(F)F)cn1)n2C1CCOCC1` [compound 751, 6-[3-cyano-5-fluoro-6-methyl-1-(tetrahydro-2H-pyran-4-yl)-1H-indol-2-yl]-N-[(2S)-1,1,1-trifluoropropan-2-yl]pyridine-3-sulfonamide], for which the IC50 was below 500 nM.

`Cc1cc2c(cc1F)c(C#N)c(-c1ccc(S(=O)(=O)NC(C)(C)C)cn1)n2C1CCOCC1` [compound 752, N-tert-butyl-6-[3-cyano-5-fluoro-6-methyl-1-(tetrahydro-2H-pyran-4-yl)-1H-indol-2-yl]pyridine-3-sulfonamide]: the IC50 was below 500 nM.

For `Cc1cc2c(cc1F)c(C#N)c(-c1ncc(S(=O)(=O)N[C@@H](C)C(F)(F)F)cn1)n2C1CCOCC1` [compound 753, 2-[3-cyano-5-fluoro-6-methyl-1-(tetrahydro-2H-pyran-4-yl)-1H-indol-2-yl]-N-[(2S)-1,1,1-trifluoropropan-2-yl]pyrimidine-5-sulfonamide], the half-maximal inhibitory concentration (IC50) was below 500 nM.

Turning to `COC(=O)c1c(-c2ccc(S(=O)(=O)NC(C)(C)C(F)(F)F)cn2)n(C2CCCC2)c2cc(C)c(F)cc12` [compound 754, methyl 1-cyclopentyl-5-fluoro-6-methyl-2-{5-[(1,1,1-trifluoro-2-methylpropan-2-yl)sulfamoyl]pyridin-2-yl}-1H-indole-3-carboxylate], the half-maximal inhibitory concentration (IC50) was below 500 nM.

On to `COC(=O)c1c(-c2ccc(S(=O)(=O)NC(C)(C)C)cn2)n(C2CCCC2)c2cc(C)c(F)cc12` [compound 755, methyl 2-[5-(tert-butylsulfamoyl)pyridin-2-yl]-1-cyclopentyl-5-fluoro-6-methyl-1H-indole-3-carboxylate], for which the IC50 was below 500 nM.

Consider `COC(=O)c1c(-c2ccc(S(=O)(=O)N[C@@H](C)C(F)(F)F)cn2)n(C2CCCC2)c2cc(C)c(F)cc12` [compound 756, (S)-methyl 1-cyclopentyl-5-fluoro-6-methyl-2-(5-(N-(1,1,1-trifluoropropan-2-yl)sulfamoyl)pyridin-2-yl)-1H-indole-3-carboxylate], for which the IC50 was below 500 nM.

Turning to `Cc1cc2c(cc1F)c(C(=O)O)c(-c1ccc(S(=O)(=O)N[C@@H](C)C(F)(F)F)cn1)n2C1CCCC1` [compound 758, (S)-1-cyclopentyl-5-fluoro-6-methyl-2-(5-(N-(1,1,1-trifluoropropan-2-yl)sulfamoyl)pyridin-2-yl)-1H-indole-3-carboxylic acid], the IC50 is below 500 nM.

As for `Cc1cc2c(cc1F)cc(-c1ccc(S(=O)(=O)N[C@@H](C)C(F)(F)F)cn1)n2C1CCCC1` [compound 760, 6-(1-cyclopentyl-5-fluoro-6-methyl-1H-indol-2-yl)-N-[(2S)-1,1,1-trifluoropropan-2-yl]pyridine-3-sulfonamide], the IC50 was below 500 nM.

Turning to `CNC(=O)c1c(-c2ccc(S(=O)(=O)N[C@@H](C)C(F)(F)F)cn2)n(C2CCCC2)c2cc(C)c(F)cc12` [compound 761, (S)-1-cyclopentyl-5-fluoro-N,6-dimethyl-2-(5-(N-(1,1,1-trifluoropropan-2-yl)sulfamoyl)pyridin-2-yl)-1H-indole-3-carboxamide], the IC50 was below 500 nM.

As for `COC(=O)c1c(-c2ccc(S(=O)(=O)NC(C)(C)C)cn2)n(C2CCC2)c2cc(C)c(F)cc12` [compound 770, methyl 2-[5-(tert-butylsulfamoyl)pyridin-2-yl]-1-cyclobutyl-5-fluoro-6-methyl-1H-indole-3-carboxylate], the IC50 was below 500 nM.

In the case of `COC(=O)c1c(-c2ccc(S(=O)(=O)N[C@@H](C)C(F)(F)F)cn2)n(C2CCC2)c2cc(C)c(F)cc12` [compound 771, methyl 1-cyclobutyl-5-fluoro-6-methyl-2-(5-{[(2S)-1,1,1-trifluoropropan-2-yl]sulfamoyl}pyridin-2-yl)-1H-indole-3-carboxylate], the concentration for half-maximal inhibition (IC50) is below 500 nM.

For `C[C@H](NS(=O)(=O)c1ccc(-c2c(C#N)c3c(F)cc(OC(F)F)cc3n2CC2CC2)nc1)C(F)(F)F` [compound 773, 6-[3-cyano-1-(cyclopropylmethyl)-6-(difluoromethoxy)-4-fluoro-1H-indol-2-yl]-N-[(2S)-1,1,1-trifluoropropan-2-yl]pyridine-3-sulfonamide], the half-inhibitory concentration (IC50) was in the range of 500 to 2000 nM.

Turning to `COC(=O)c1c(-c2ncc(S(=O)(=O)N[C@@H](C)C(F)(F)F)cn2)n(C2CCC2)c2cc(C)c(F)cc12` [compound 774, methyl 1-cyclobutyl-5-fluoro-6-methyl-2-(5-{[(2S)-1,1,1-trifluoropropan-2-yl]sulfamoyl}pyrimidin-2-yl)-1H-indole-3-carboxylate], the 50% inhibitory concentration (IC50) is below 500 nM.

Take `Cc1cc2c(cc1F)c(C(=O)O)c(-c1ncc(S(=O)(=O)N[C@@H](C)C(F)(F)F)cn1)n2C1CCC1` [compound 775, 1-cyclobutyl-5-fluoro-6-methyl-2-(5-{[(2S)-1,1,1-trifluoropropan-2-yl]sulfamoyl}pyrimidin-2-yl)-1H-indole-3-carboxylic acid]: the half-maximal inhibitory concentration (IC50) was in the range of 500 to 2000 nM.

With `Cc1cc2c(cc1F)c(C(=O)O)c(-c1ccc(S(=O)(=O)NC(C)(C)C)cn1)n2C1CCC1` [compound 776, 2-[5-(tert-butylsulfamoyl)pyridin-2-yl]-1-cyclobutyl-5-fluoro-6-methyl-1H-indole-3-carboxylic acid], the IC50 is below 500 nM.

In the case of `CCc1cc2c(cc1F)c(C#N)c(-c1ccc(S(=O)(=O)N[C@@H](C)C(F)(F)F)cn1)n2-c1ccccn1` [compound 778, 6-[3-cyano-6-ethyl-5-fluoro-1-(pyridin-2-yl)-1H-indol-2-yl]-N-[(2S)-1,1,1-trifluoropropan-2-yl]pyridine-3-sulfonamide], the IC50 is below 500 nM.

For the compound `CCC(NS(=O)(=O)c1ccc(-c2c(C#N)c3cc(F)c(OC(F)F)cc3n2C2CCC2)nc1)C(F)(F)F` (centres unmarked) [compound 790, 6-[3-cyano-1-cyclobutyl-6-(difluoromethoxy)-5-fluoro-1H-indol-2-yl]-N-(1,1,1-trifluorobutan-2-yl)pyridine-3-sulfonamide], the IC50 was below 500 nM.

For `CNC(=O)c1c(-c2ccc(S(=O)(=O)N[C@@H](C)C(F)(F)F)cn2)n(C2CCC2)c2cc(C)c(F)cc12` [compound 801, 1-cyclobutyl-5-fluoro-N,6-dimethyl-2-(5-{[(2S)-1,1,1-trifluoropropan-2-yl]sulfamoyl}pyridin-2-yl)-1H-indole-3-carboxamide], the IC50 is below 500 nM.

With `Cc1c(F)c(OC(F)F)cc2c1c(C#N)c(-c1ccc(S(=O)(=O)N[C@@H](C)C(F)(F)F)cn1)n2C1CCC1` [compound 810, 6-[3-cyano-1-cyclobutyl-6-(difluoromethoxy)-5-fluoro-4-methyl-1H-indol-2-yl]-N-[(2S)-1,1,1-trifluoropropan-2-yl]pyridine-3-sulfonamide], the IC50 is below 500 nM.

With `N#Cc1c(-c2ccc(S(=O)(=O)NC3(C(F)(F)F)CC3)cn2)n(C2CCC2)c2cc(O)c(F)cc12` [compound 813, 6-(3-cyano-1-cyclobutyl-5-fluoro-6-hydroxy-1H-indol-2-yl)-N-[1-(trifluoromethyl)cyclopropyl]pyridine-3-sulfonamide], the IC50 lay in the range of 500 to 2000 nM.

On to `Cc1cc2c(cc1F)c(C#N)c(-c1ccc(S(=O)(=O)N[C@@H](C)C(F)(F)F)cn1)n2-c1ncccc1F` [compound 814, 6-[3-cyano-5-fluoro-1-(3-fluoropyridin-2-yl)-6-methyl-1H-indol-2-yl]-N-[(2S)-1,1,1-trifluoropropan-2-yl]pyridine-3-sulfonamide], for which the half-maximal inhibitory concentration (IC50) was below 500 nM.

For the compound `COc1ccnc(-n2c(-c3ccc(S(=O)(=O)N[C@@H](C)C(F)(F)F)cn3)c(C#N)c3cc(F)c(C)cc32)c1` [compound 816, 6-[3-cyano-5-fluoro-1-(4-methoxypyridin-2-yl)-6-methyl-1H-indol-2-yl]-N-[(2S)-1,1,1-trifluoropropan-2-yl]pyridine-3-sulfonamide], the IC50 is below 500 nM.
